The values below come from patent publication US5322847A, “Azabenzimidazoles in the treatment of asthma, arthritis and related diseases” (Pfizer Inc., priority 1992, dated 1994).

As usually defined, the Kd is the equilibrium constant for the complex coming apart.

Experiment [1] concerns the target T1, PAF receptor sites on rabbit platelet homogenate (Oryctolagus cuniculus, UniProt G1TEI7).
T1 construct: specific PAF receptor sites on rabbit platelet homogenate; tissue Rockland, Inc., Gilbertsville, Pa; (rabbit blood mixture); host or cells: platelets from blood of normal New Zealand white rabbits, freeze-thawed homogenate
In words: platelet activating factor (PAF) receptor assay. The format is binding. Conditions: radioligand 3H-PAF; constant used in Ki=(IC50)/[1+(L/Kd)]; 25° C., sodium-free buffer +0.25% BSA; read-out: Kd (dissociation constant). From the text:
The platelet activating factor (PAF) receptor assay tests the ability of a compound to compete with radiolabeled PAF for specific PAF receptor sites on rabbit platelet homogenate.
Five hundred milliliters of a rabbit blood mixture is purchased from Rockland, Inc., Gilbertsville, Pa. The blood mixture is 4 parts blood: 1 part 4% sodium citrate (v/v), and is obtained by heart puncture from normal, approximately 8-month old New Zealand white rabbits. The blood mixture is delivered overnight on wet ice (approx. 8° C.).
The blood mixture is centrifuged at 514 g for 10 minutes. The supernatant platelet-rich plasma is gently laid over Ficoll-Paque (Pharmacia) at a ratio of 9 parts plasma:2 parts Ficoll (v/v) The plasma/Ficoll mixture is centrifuged at 856 g for 20 minutes. […] Protein concentration of the suspension is determined by a Bio-Rad assay. […]
The reaction tubes are incubated at 25° C. for 45 minutes. […] The vial is capped, vortexed and counted for 3H.
Percent specific binding is calculated using the formula
Percent specific binding is graphed as a function of compound concentration. […] Alternatively, the IC50 is calculated using the logistic dose-response (Hill plot) option of the VAX Biostat utility. The inhibitory constant (Ki) is calculated by using the formula […]

Experiment [2] concerns PAF lethality in CDl male mice. In words: PAF lethality assay. The format is in vivo. Conditions: Mus musculus; positive control; oral dosing 45 minutes before i.v. PAF injection; read-out: approximate ED 50. On the procedure: To evaluate the compounds of the formula (I) in vivo, they are tested by the so-called PAF lethality assay procedure:
Mice: CDl males, all approximately the same weight (approximately 26 grams), 12 per group.
Vehicle for oral drug dosing: EES (5% ethanol, 5% emulphor, 90% saline). Stored at room temperature.
Drugs: For routine screening at 50 mg/kg, 20 mg drug is dissolved in 4 ml EES, using sonication in a sonicator bath or grinding in a Ten Broeck grinder to dissolve drug if necessary. If solubility is still a problem, the drug is used as a suspension.
Vehicle for i.v. Injection: Saline with 2.5 mg/ml Bovine Serum Albumin (BSA, Sigma #A4378) and 0.05 mg/ml Propranolol (Sigma #PO884). Prepared fresh daily and kept at room temperature.
Platelet Activating Factor (PAF): A […] stock solution is prepared by dissolving 1 mg PAF (Calbiochem #429460) in 0.18 ml ethanol. This is stored at -20° C. and is diluted in vehicle (see above) the day of use. The concentration of PAF used is calibrated so that when injected at 0.1 ml/10 grams body weight, it will kill approximately 80% of untreated controls. This is usually about […] (a 1 to 2034 dilution from stock). […]
Method: 45 minutes before PAF injection, mice are treated orally with drug using 0.1 ml/10 grams body weight. […] Results are expressed as percent mortality as compared to controls. […]

T1 sequence (G1TEI7 1-342): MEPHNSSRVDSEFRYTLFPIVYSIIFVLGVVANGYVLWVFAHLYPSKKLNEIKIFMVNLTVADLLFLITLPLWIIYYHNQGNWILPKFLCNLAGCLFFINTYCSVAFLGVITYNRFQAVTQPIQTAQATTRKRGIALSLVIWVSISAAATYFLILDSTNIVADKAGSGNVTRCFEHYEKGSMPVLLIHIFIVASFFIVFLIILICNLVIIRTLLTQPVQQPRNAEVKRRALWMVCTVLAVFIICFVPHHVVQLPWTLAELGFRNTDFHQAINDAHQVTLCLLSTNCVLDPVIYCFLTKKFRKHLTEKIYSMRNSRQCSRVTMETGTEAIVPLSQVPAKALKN

Take `CCCCCCCCCCCCCCCCOCC(COP(=O)([O-])OCC[N+](C)(C)C)OC(C)=O` (centres unmarked) [Example 3H-PAF]: the Kd in experiment [1] is 0.83 nM.

With `O=C1CCN(c2ccccc2)N1` [Phenidone], in experiment [2], the ED50 was roughly 25 mg/kg.
